Results on four compounds are retold here after patent US7638648B2, “Compounds having selective cytochrome P450RAI-1 or selective cytochrome P450RAI-2 inhibitory activity and methods of obtaining the same” (Allergan Inc., priority 2003, dated 2009).

The target of one test is T1, P450RAI-1 (Homo sapiens, UniProt O43174).
T1 construct: expressed in transfected cells; host or cells: HeLa
T1 sequence (O43174 1-497): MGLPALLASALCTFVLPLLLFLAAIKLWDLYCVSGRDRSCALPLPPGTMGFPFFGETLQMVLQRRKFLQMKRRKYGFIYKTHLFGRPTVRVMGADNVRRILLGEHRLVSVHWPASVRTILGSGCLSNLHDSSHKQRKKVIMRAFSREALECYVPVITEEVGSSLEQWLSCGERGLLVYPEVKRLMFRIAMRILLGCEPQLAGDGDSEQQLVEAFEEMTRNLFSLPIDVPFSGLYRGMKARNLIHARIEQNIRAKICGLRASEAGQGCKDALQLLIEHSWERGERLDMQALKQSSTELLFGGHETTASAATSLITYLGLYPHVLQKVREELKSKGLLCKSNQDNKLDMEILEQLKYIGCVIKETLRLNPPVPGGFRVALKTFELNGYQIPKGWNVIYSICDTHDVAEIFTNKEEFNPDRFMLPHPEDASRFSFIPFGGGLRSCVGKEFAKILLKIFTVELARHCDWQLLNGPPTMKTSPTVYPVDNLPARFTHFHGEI
Description: P450RAI-1 cell-based inhibitor assay (inhibition of all-trans-RA metabolism). The conditions noted are these: P450RAI-1 stably transfected HeLa cells, [3H]-RA, 3 hours at 37° C.; read-out: P450RAI-1 Whole cell IC50. The protocol: (§1) P450RAI-1 and P450RAI-2 Cell-Based Inhibitor Assay:
(§2) P450RAI-1 stably transfected HeLa cells, or P450RAI-2 stably transfected HeLa cells, as applicable, are maintained in […] tissue culture dishes in Modified Eagle's Medium (MEM) containing 10% Fetal Bovine Serum (FBS) and 100 μg/ml hygromycin. Exponentially growing cells are harvested by incubating in trypsin. Cells are then washed with 1× Phosphate Buffered Saline (PBS) and plated in a 48-well plate at 5×10^5 cells in 0.2 ml MEM medium containing 10% FBS and 0.05 μCi [^3H]—RA in the presence or absence of increasing concentrations of the test compounds. The compounds are diluted in 100% DMSO and then added in triplicate wells at either 10, 1 or 0.1 μM final concentration. As a positive control for RA metabolism inhibition, cells are also incubated with ketoconazole at 100, 10 and 1 μM. Cells are incubated for 3 hours at 37° C. The retinoids are then extracted using the procedure of Bligh et al. (1959) Canadian Journal of Biochemistry 37, 911-917, modified by using methylenechloride instead of chloroform. The publication Bligh et al. (1959) Canadian Journal of Biochemistry 37, 911-917 is specifically incorporated herein by reference. The water soluble radioactivity is quantified using a β-scintillation counter. […]

In test [1] the target is T2, RAR γ (Homo sapiens, UniProt P13631).
T2 sequence (P13631 1-454): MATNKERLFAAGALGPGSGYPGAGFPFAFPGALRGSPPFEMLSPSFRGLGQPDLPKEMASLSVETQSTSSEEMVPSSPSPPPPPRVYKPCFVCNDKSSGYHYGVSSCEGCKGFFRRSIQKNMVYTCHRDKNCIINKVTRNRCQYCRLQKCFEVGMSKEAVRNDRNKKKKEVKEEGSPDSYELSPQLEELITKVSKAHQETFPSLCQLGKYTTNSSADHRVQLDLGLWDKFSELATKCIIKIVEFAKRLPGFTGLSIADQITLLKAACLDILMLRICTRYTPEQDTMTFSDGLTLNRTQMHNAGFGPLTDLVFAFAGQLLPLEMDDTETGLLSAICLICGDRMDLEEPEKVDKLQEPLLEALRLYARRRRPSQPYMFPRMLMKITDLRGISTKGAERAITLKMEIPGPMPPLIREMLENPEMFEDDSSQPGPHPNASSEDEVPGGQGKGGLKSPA
Description: RARγ EC50/efficacy (Table 1). The test is classed as cell-based. As to conditions: value in parentheses.

The next test deals with T3, RAR α (Homo sapiens, UniProt P10276).
T3 sequence (P10276 1-462): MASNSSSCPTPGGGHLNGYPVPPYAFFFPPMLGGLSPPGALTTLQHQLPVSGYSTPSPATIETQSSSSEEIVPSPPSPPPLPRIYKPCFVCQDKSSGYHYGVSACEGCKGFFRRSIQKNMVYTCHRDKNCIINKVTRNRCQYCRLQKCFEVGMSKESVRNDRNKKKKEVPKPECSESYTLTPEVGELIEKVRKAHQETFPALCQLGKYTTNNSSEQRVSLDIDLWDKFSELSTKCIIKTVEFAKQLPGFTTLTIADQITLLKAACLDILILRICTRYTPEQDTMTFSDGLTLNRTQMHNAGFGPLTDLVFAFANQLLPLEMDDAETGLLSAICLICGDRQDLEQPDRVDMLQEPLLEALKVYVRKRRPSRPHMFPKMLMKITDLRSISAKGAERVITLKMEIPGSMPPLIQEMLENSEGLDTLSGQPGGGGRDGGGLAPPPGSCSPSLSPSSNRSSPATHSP
Description: RARα binding Kd (Table 1). As to conditions: last item of cell.

A further test deals with T4, RAR β (Homo sapiens, UniProt P10826).
T4 sequence (P10826 1-455): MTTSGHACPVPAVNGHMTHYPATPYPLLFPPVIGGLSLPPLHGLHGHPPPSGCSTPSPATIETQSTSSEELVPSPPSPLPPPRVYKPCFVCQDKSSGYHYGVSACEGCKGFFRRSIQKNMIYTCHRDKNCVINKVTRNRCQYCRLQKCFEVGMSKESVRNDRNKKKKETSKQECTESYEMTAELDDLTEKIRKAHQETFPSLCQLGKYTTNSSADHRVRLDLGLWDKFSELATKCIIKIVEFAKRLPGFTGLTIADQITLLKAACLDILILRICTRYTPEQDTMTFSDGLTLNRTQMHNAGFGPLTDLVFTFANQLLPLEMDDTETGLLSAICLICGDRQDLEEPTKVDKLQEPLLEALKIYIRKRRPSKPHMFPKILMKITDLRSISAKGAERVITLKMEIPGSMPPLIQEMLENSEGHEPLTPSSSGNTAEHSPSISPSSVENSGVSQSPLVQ
The test is described as follows: RARβ binding Kd (Table 1). As to conditions: last item of cell.

Test [2] has as its target T2, RAR γ. Description: RARγ binding Kd (Table 1). As to conditions: last item of cell.
For the next test, the target named is T5, P450RAI-2 (Homo sapiens, UniProt Q9NR63).
T5 construct: expressed in transfected cells; host or cells: HeLa
T5 sequence (Q9NR63 1-512): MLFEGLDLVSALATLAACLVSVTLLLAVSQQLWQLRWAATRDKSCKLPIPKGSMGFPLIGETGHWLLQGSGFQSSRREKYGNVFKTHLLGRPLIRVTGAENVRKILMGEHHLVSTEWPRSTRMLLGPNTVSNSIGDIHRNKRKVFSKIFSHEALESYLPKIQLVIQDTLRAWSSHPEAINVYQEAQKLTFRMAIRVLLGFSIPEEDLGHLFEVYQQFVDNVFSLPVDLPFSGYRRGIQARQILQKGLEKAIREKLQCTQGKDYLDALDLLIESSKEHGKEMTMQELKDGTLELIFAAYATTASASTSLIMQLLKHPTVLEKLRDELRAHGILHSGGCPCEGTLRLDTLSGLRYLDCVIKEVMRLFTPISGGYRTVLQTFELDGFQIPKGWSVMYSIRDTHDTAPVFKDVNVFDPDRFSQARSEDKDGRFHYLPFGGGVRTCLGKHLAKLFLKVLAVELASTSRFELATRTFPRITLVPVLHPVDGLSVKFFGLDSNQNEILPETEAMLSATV
The test is described as follows: P450RAI-2 cell-based inhibitor assay (inhibition of all-trans-RA metabolism). The conditions noted are these: P450RAI-2 stably transfected HeLa cells, [3H]-RA, 3 hours at 37° C.; read-out: P450RAI-2 Whole cell IC50. The protocol:
as §1, §2

A word on the IC50: it is the concentration at which inhibition is half-maximal. Turning to `CC(C)c1cc(C(=O)Oc2ccc(/C=C/C(=O)O)cc2)cc2c1OC(C)(C)CC2(C)C` [Compound 16, 8-Isopropyl-2,2,4,4-tetramethyl-chroman-6-carboxylic acid 4-(2-carboxy-vinyl)-phenyl ester], the IC50 at P450RAI-1 came out at 1.3 µM.

Turning to `C=Cc1c(C)c(C#Cc2ccc(CC(=O)O)cc2)cc(C(C)(C)C)c1OC(C)C` [Compound 46, [4-(5-tert-Butyl-4-isopropoxy-2-methyl-3-vinyl-phenylethynyl)-phenyl]-acetic acid], the “RAR γ (EFFICACY)” value at RAR γ [1] stood at 68.

One may read the Kd as a measure of binding affinity in units of concentration. In the case of `CN(C1CC1)C1CCC(C)(C)c2cc(C#Cc3ccc(/C=C/C(=O)O)cc3)cc(C3CC3)c21` (stereo not drawn) [Compound 48, 3-{4-[4-Cyclopropyl-5-(cyclopropyl-methyl-amino)-8,8-dimethyl-5,6,7,8-tetrahydro-naphthalen-2-ylethynyl]-phenyl}-acrylic acid], the Kd at RAR α, on RAR β and on RAR γ [2] was over 10 µM each time.

Turning to `CC(C(=O)O)c1ccc(C#Cc2cc(C3CC3)c3c(c2)C(C)(C)CCC3N(C)C2CC2)cc1` (stereo not drawn) [Compound 49, 2-{4-[4-Cyclopropyl-5-(cyclopropyl-methyl-amino)-8,8-dimethyl-5,6,7,8-tetrahydro-naphthalen-2-ylethynyl]-phenyl}-propionic acid], the concentration for half-maximal inhibition (IC50) on P450RAI-2 is over 10 µM.
